In ChEMBL document CHEMBL4680259, “Discovery of bazedoxifene analogues targeting glycoprotein 130” (Eur J Med Chem, 2020):

Key:
[1] = target: T1, Interleukin-6 receptor subunit beta (Homo sapiens) (UniProt P40189); test: Binding affinity to immobilized GP130 (unknown origin) assessed as response unit at 20 uM by SPR analysis
T1 sequence (whole entry): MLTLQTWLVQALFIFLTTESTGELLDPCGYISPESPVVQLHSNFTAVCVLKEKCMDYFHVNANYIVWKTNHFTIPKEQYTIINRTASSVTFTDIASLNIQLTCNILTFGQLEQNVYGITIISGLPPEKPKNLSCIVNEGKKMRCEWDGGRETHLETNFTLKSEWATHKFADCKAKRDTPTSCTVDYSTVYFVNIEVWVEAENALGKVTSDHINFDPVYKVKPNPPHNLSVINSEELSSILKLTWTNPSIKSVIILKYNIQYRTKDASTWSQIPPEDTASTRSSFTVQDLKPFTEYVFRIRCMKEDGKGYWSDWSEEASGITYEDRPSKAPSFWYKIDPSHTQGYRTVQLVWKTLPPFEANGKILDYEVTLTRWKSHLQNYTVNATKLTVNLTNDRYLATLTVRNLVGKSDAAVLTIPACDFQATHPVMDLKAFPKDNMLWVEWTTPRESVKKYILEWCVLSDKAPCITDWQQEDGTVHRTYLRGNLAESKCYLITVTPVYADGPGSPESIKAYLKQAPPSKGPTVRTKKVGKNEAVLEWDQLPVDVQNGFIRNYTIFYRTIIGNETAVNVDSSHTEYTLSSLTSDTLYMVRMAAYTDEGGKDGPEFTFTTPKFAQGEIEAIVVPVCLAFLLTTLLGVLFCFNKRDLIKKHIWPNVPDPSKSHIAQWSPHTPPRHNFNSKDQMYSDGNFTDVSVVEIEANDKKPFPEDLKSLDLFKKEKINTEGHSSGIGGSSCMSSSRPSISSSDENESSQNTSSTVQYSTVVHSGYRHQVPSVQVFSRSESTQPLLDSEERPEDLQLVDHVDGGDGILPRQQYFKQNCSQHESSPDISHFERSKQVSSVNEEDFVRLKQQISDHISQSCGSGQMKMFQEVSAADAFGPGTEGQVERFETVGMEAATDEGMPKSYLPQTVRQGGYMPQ

A549 = test: Induction of apoptosis in human A549 cells assessed as necrotic cells at 3 uM incubated for 24 hrs by annexin V-FITC and propidium iodide staining based flow cytometry analysis (reference value: 0.4 %); type: functional

## NC(=O)N1N=C(c2ccc(C(F)(F)F)cc2)CC1c1cn(Cc2ccc(OCCN3CCCCCC3)cc2)c2ccc(Br)cc12 (configuration not stated)
[1]
  Activity: 28.3 RU
A549
  Activity: 0.4%
